Experimental data taken from ChEMBL document CHEMBL3098042, “New carbocyclic nucleoside analogues with a bicyclo[2.2.1]heptane fragment as sugar moiety; synthesis, X-ray crystallography and anticancer activity” (2014).

Legend:
[1] = Anticancer activity against human U937 cells assessed as decrease in uridine incorporation at 30 uM relative to control; type: functional, U-937; parameters: scale not given: the % may be the effect or the level left
[2] = tested on: K562; assay: Growth inhibition of human K562 cells at 10^-5 M relative to control; type: functional; details: values are per cent of control
[3] = tested on: LOX IMVI; assay: Growth inhibition of human LOXIMVI cells at 10^-5 M relative to control; type: functional; details: values are per cent of control
[4] = tested on: PC-3; assay: Growth inhibition of human PC3 cells at 10^-5 M relative to control; type: functional; details: values are per cent of control
[5] = tested on: MCF7; assay: Growth inhibition of human MCF7 cells at 10^-5 M relative to control; type: functional; details: values are per cent of control
[6] = Growth inhibition of human RXF393 cells at 10^-5 M relative to control; type: functional; details: RXF 393, values are per cent of control
[7] = tested on: MOLT-4; assay: Growth inhibition of human MOLT4 cells at 10^-5 M relative to control; type: functional; details: values are per cent of control
[8] = tested on: CAKI-1; assay: Growth inhibition of human CAKI-1 cells at 10^-5 M relative to control; type: functional; details: values are per cent of control
[9] = tested on: NCI-H226; assay: Growth of human NCI-H226 cells at 10^-5 M relative to control
[10] = tested on: HCT-116; assay: Growth inhibition of human HCT116 cells at 10^-5 M relative to control; type: functional; details: values are per cent of control
[11] = tested on: HCT-15; assay: Growth inhibition of human HCT15 cells at 10^-5 M relative to control; type: functional; details: values are per cent of control
[12] = Growth inhibition of human NCI-ADR-RES cells at 10^-5 M relative to control; type: functional; details: values are per cent of control
[13] = tested on: SK-MEL-5; assay: Growth inhibition of human SK-MEL-5 cells at 10^-5 M relative to control; type: functional; details: values are per cent of control
[14] = Growth inhibition of human UO31 cells at 10^-5 M relative to control; type: functional; details: UO-31, values are per cent of control
[15] = tested on: SR; assay: Growth inhibition of human SR cells at 10^-5 M relative to control; type: functional; details: values are per cent of control
[16] = tested on: NCI-H522; assay: Growth inhibition of human NCI-H522 cells at 10^-5 M relative to control; type: functional; details: values are per cent of control
[17] = tested on: HL-60(TB); assay: Growth inhibition of human HL-60(TB) cells at 10^-5 M relative to control; type: functional; details: values are per cent of control
[18] = tested on: NCI-H322M; assay: Growth inhibition of human NCI-H322M cells at 10^-5 M relative to control; type: functional; details: values are per cent of control
[19] = tested on: MDA-MB-468; assay: Growth inhibition of human MDA-MB-468 cells at 10^-5 M relative to control; type: functional; details: values are per cent of control
[20] = tested on: T47D; assay: Growth inhibition of human T47D cells at 10^-5 M relative to control; type: functional; details: values are per cent of control
[21] = tested on: CCRF-CEM; assay: Growth inhibition of human CCRF-CEM cells at 10^-5 M relative to control; type: functional; details: values are per cent of control
[22] = tested on: SNB-75; assay: Growth inhibition of human SNB75 cells at 10^-5 M relative to control; type: functional; details: values are per cent of control
[23] = tested on: IGROV-1; assay: Growth inhibition of human IGROV1 cells at 10^-5 M relative to control; type: functional; details: values are per cent of control
[24] = Growth inhibition of human OVCAR5 cells at 10^-5 M relative to control; type: functional; details: OVCAR-5, values are per cent of control

Compound | growth, % of control at 10 µM [2] | growth, % of control at 10 µM [3] | growth, % of control at 10 µM [4] | growth, % of control at 10 µM [5] | growth, % of control at 10 µM [6] | growth, % of control at 10 µM [7] | growth, % of control at 10 µM [8] | growth, % of control at 10 µM [10] | growth, % of control at 10 µM [11] | growth, % of control at 10 µM [12] | growth, % of control at 10 µM [13] | growth, % of control at 10 µM [14] | growth, % of control at 10 µM [15] | growth, % of control at 10 µM [17] | growth, % of control at 10 µM [18] | growth, % of control at 10 µM [19] | growth, % of control at 10 µM [20] | growth, % of control at 10 µM [21] | growth, % of control at 10 µM [22] | growth, % of control at 10 µM [24] | further results
O=c1[nH]c(=O)n([C@H]2C[C@@H]3[C@@H](/C=C/[C@@H](O)COc4cccc(Cl)c4)[C@H](O)C[C@@H]3O2)cc1I |  |  |  |  |  |  |  |  |  |  |  |  |  |  |  |  |  |  |  |  | Activity [1]: 64%
Nc1ncnc2c1ncn2[C@H]1C[C@H]2[C@H](CO)[C@@H]1C[C@@H]2Cl | 97.1% | 91.8% | 99.3% | 100% | 106% | 85.6% | 86.9% | 89.2% | 97.5% | 103% | 96.5% | 94.2% | 88.9% | 95.8% | 102% | 103% | 102% | 90.1% | 103% | 90.1% | growth, % of control at 10 µM [9]: 110%; growth, % of control at 10 µM [16]: 98.7%; growth, % of control at 10 µM [23]: 103%
CN(C)c1ncnc2c1ncn2[C@H]1C[C@H]2[C@H](CO)[C@@H]1C[C@@H]2Cl | 91% | 96.8% | 93.3% | 94.9% | 109% | 78.9% | 95.1% | 101% | 100% | 98.7% | 99.5% | 79.1% | 81.4% | 98.2% | 96.8% | 102% | 96.8% | 86.7% | 99.3% | 90.3% | growth, % of control at 10 µM [9]: 101%; growth, % of control at 10 µM [16]: 88.3%; growth, % of control at 10 µM [23]: 101%
CN(C)c1ncnc2c1ncn2[C@H]1C[C@@H]2C=C[C@H]1[C@H]2CO | 90% | 95.8% | 92% | 98.7% | 109% | 79.7% | 97.9% | 94.8% | 98.9% | 99.5% | 98.3% | 82.7% | 82.2% | 88.8% | 104% | 98.2% | 104% | 87.9% | 109% | 96.5% | growth, % of control at 10 µM [9]: 109%; growth, % of control at 10 µM [16]: 98.5%; growth, % of control at 10 µM [23]: 98.2%
OC[C@H]1[C@@H]2C[C@H](n3cnc4c(NC5CC5)ncnc43)[C@H]1C[C@@H]2Cl | 95.8% | 89.6% | 104% | 98.5% | 110% | 84.8% | 102% | 96.5% | 96.5% | 101% | 101% | 85.8% | 86.6% | 89% | 90% | 100% | 89.6% | 89.5% | 97.8% | 95% | growth, % of control at 10 µM [9]: -27.2%; growth, % of control at 10 µM [16]: 88.7%; growth, % of control at 10 µM [23]: 90.6%
OC[C@H]1[C@@H]2C[C@H](n3cnc4c(NC5CCCC5)ncnc43)[C@H]1C[C@@H]2Cl | 93.1% | 89.7% | 95.3% | 97.2% | 104% | 87.1% | 99% | 99.8% | 93.7% | 103% | 95.7% | 99.6% | 86.5% | 118% |  | 102% | 94.1% | 83.7% | 88% | 98.8% | growth, % of control at 10 µM [16]: 101%
OC[C@H]1[C@@H]2C[C@H](n3cnc4c(NCCc5ccccc5)ncnc43)[C@H]1C[C@@H]2Cl | 91.1% | 92.7% | 89.1% | 89.9% | 87% | 83.3% | 96% | 101% | 81.7% | 88.2% | 73.9% | 73.8% | 84.1% | 120% | 99.5% | 89.4% | 86.8% | 87.6% | 106% | 104% | growth, % of control at 10 µM [23]: 105%
CCN(CC)CCCNc1ncnc2c1ncn2[C@H]1C[C@H]2[C@H](CO)[C@@H]1C[C@@H]2Cl | 106% | 96.9% | 102% | 95.9% | 111% | 83.6% | 93% | 98.5% | 101% | 103% | 102% | 80.6% | 85.8% | 90.5% | 93.2% | 101% | 104% | 90.2% | 99.2% | 99.7% | growth, % of control at 10 µM [9]: 105%; growth, % of control at 10 µM [16]: 93.2%; growth, % of control at 10 µM [23]: 112%
CN1CCN(c2ncnc3c2ncn3[C@H]2C[C@H]3[C@H](CO)[C@@H]2C[C@@H]3Cl)CC1 | 107% | 98% | 96.2% | 84% | 111% | 83.4% | 98.4% | 101% | 97.7% | 100% | 99.4% | 78.5% | 81% | 86% | 92.7% | 101% | 100% | 90.5% | 107% | 96.4% | growth, % of control at 10 µM [9]: 102%; growth, % of control at 10 µM [23]: 92.7%
OC[C@H]1[C@@H]2C[C@H](n3cnc4c(N5CCOCC5)ncnc43)[C@H]1C[C@@H]2Cl | 90.7% | 95.8% | 98.5% | 99.9% | 113% | 81.1% | 87.2% | 89.6% | 93% | 99% | 99.8% | 76.9% | 82.3% | 91.9% | 100% | 110% | 100% | 84.9% | 85.6% | 93% | growth, % of control at 10 µM [9]: 108%; growth, % of control at 10 µM [16]: 94.5%; growth, % of control at 10 µM [23]: 92.3%
